{
  "source": "patent US20220387403A1",
  "about": "“COMPOUNDS, COMPOSITIONS AND METHODS FOR TREATING NASH, NAFLD, AND OBESITY” (CVI Pharmaceuticals Limited, priority 2019, published 2022)",
  "key": {"[1]": {"test_system": "ACC", "experiment": "Western blot of phosphorylated ACC in HepG2 cells", "type": "cell-based, human", "conditions": "20 μM, 1, 2 and 3 days", "procedure": "(§1) Cells were harvested after 1, 2, and 3 days treatment and western blot analysis was conducted using antibodies directed to LDLR and PCSK9. Chicken anti-LDLR was purchased from Abcam, the mouse anti-PCSK9 was purchased from Cayman Chemicals, and anti-pACC was purchased from Cell Signaling.\n(§2) Chicken anti-LDLR was purchased from Abcam and the mouse anti-PCSK9 was purchased from Cayman Chemicals. HepG2 cells cultured in 60-mm dishes were incubated overnight in medium containing 0.5% fetal bovine serum prior to the addition of compounds at 20 uM concentration for 1-3 days. Total cell lysate was isolated and 50 μg of protein was separated on SDS-PAGE and transferred to nitrocellulose membrane for immunoblotting with anti-LDLR, anti-PCSK9, and anti-p-ACC."}, "[2]": {"test_system": "LDLR", "experiment": "Western blot of LDLR protein in HepG2 cells", "type": "cell-based, human", "conditions": "for LDLR protein levels (in words): 20 μM, 1, 2 and 3 days", "procedure": "as §1\n(§3) To determine whether the stimulatory effects of statins on LDLR protein expression could be enhanced by some new compounds invented herein, HepG2 cells were untreated or treated with a low dose of rosuvastatin (RSV) at 0.3 and 1 uM concentration in the absence or the presence of Compound 127(+), or treated with low concentrations of Compound 127(+) alone for 2 days. Western blot analysis was conducted to examine LDLR and PCSK9 protein levels. Compound 127(+) is the single enantiomer of compound 127 with a positive optical rotation. […] Furthermore, the inducing effects of RSV on PCSK9 protein levels were antagonized by compound 127(+).\nas §2"}, "[3]": {"test_system": "PCSK9", "experiment": "Western blot of PCSK9 protein in HepG2 cells", "type": "cell-based, human", "conditions": "for expression of PCSK9 protein (in words): 20 μM, 1, 2 and 3 days", "procedure": "as §1, §3, §2"}, "[4]": {"test_system": "hyperlipidemic rabbits", "experiment": "Lipid lowering effects and blood chemistry in hyperlipidemic rabbits", "conditions": "for serum total cholesterol level: in mM", "experimental": "(§4) Forty-two male Japanese rabbits were fed the cholesterol enriched rabbit diet for two weeks to induce hypercholesterolemia. […] Serum samples were collected at day 0 (before the drug treatment) and day 7. […] All tested animals were sacrificed at the end of a total of 14 days treatment and serum samples were analyzed for TC, LDL-C, TG, and HDL-C. In addition to lipid profiles, a number of biochemical parameters were also analyzed to aseesee the effects of drug treatments on liver function, muscle function, kidney function, and heart function."}, "[5]": {"test_system": "hyperlipidemic rabbits", "conditions": "rabbit, in vivo", "experimental": "as §4"}, "[6]": {"test_system": "Male Wister rats", "experiment": "Lipid lowering effects in Wister rats under a high fat and high cholesterol diet", "type": "in vivo, rat", "conditions": "75 mg/kg daily oral", "procedure": "Male Wister rats were used as an animal model to examine the in vivo effects of (14R, 13S)-CRDL in plasma lipid levels.\nIn one experiment, 18 Wister male rats under a high fat and high cholesterol diet were divided into 2 groups. One group was given (14R, 13S)-CRDL hydrochloride salt orally at a daily dose of 75 mg/kg by an orogastric tube for 4 weeks, and the control group received daily treatment of equal amount of vehicle (0.1 M sodium phosphate, pH 3.5). Serum lipid levels were measured weekly.\nAt the end of treatment, Rats were sacrificed and blood and sera were collected to measure several critical parameters for liver function and kidney function. […] Kidney function and blood glucose level were not changed by the treatment."}, "[7]": {"test_system": "Male Wister rats", "experiment": "Food intake and body weight in Wister rats under a high fat and high cholesterol diet", "type": "in vivo, rat", "conditions": "4-week treatment", "procedure": "The food intake and body weight gains were measured every week during the 4-week treatment period. […] In the first week, the amount of food consumed was decreased in CRDL-treated group. […] The ability of CRDL to activate AMPK signaling pathway to increase energy expenditure and to reduce fat accumulation likely contributes to this weight reducing effect."}, "[8]": {"conditions": "with rosuvastatin 0.3 and 1 uM, 2 days"}, "[9]": {"conditions": "after 14 days of drug treatment, mean, n = 6"}, "[10]": {"conditions": "treatment day 0 (before the drug treatment), mean ± SD, n = 6"}, "[11]": {"conditions": "treatment day 4, 128(+)/128(−) 30 mg/kg, SMV/ATV 3 mg/kg once a day oral gavage"}, "[12]": {"conditions": "treatment day 7, 128(+)/128(−) 30 mg/kg, SMV/ATV 3 mg/kg once a day oral gavage"}, "[13]": {"conditions": "treatment day 10, from day 7 128(+)/128(−) 60 mg/kg, SMV/ATV 10 mg/kg"}, "[14]": {"conditions": "treatment day 14, from day 7 128(+)/128(−) 60 mg/kg, SMV/ATV 10 mg/kg"}},
  "note": "Where two headings read alike, the source gives them in different places.",
  "data": [
    {"smiles": "COc1cc2c(cc1OC)C1Cc3ccc(OC)c(OS(=O)(=O)c4cccc(F)c4)c3CN1CC2", "note": "(stereo not drawn) [127(+), 2,3,10-Trimethoxy-5,6,7,8,13,13a-hexahydroisoquinolino[2,1-b]isoquinolin-9-yl 3-fluorobenzenesulfonate]", "values": [
      {"measurement": "ACC phosphorylation (in words)", "setting": "[1]", "value": "induced"},
      {"measurement": "LDLR protein levels (in words)", "setting": "[2]", "value": "effectively increased"},
      {"measurement": "stimulatory effects of statins on LDLR protein expression, combination (in words)", "setting": "[2]; [8]", "value": "further improved"},
      {"measurement": "expression of PCSK9 protein (in words)", "setting": "[3]", "value": "strongly inhibited"},
      {"measurement": "inducing effects of RSV on PCSK9 protein levels, combination (in words)", "setting": "[3]; [8]", "value": "antagonized"}
    ]},
    {"smiles": "COc1ccc2c(c1)CCN1Cc3c(ccc(OC)c3OS(=O)(=O)c3cccc(F)c3)CC21", "note": "(stereo not drawn) [128(+), 3,10-Dimethxoy-5,6,7,8,13,13a-hexahydroisoquinolino[2,1-b]isoquinolin-9-yl 3-fluorobenzenesulfonate]", "values": [
      {"measurement": "ALP", "setting": "[4]; [9]", "value": 165.2, "unit": "IU/L"},
      {"measurement": "ALT", "setting": "[4]; [9]", "value": 68.7, "unit": "IU/L"},
      {"measurement": "AST", "setting": "[4]; [9]", "value": 20.8, "unit": "IU/L"},
      {"measurement": "CK", "setting": "[4]; [9]", "value": 1172.3, "unit": "U/L"},
      {"measurement": "CREA", "setting": "[4]; [9]", "value": 97.2, "unit": "µmol/L"},
      {"measurement": "GLU", "setting": "[4]; [9]", "value": 7.9, "unit": "mmol/L"},
      {"measurement": "HDL-C", "setting": "[4]; [9]", "value": 3.6, "unit": "mmol/L"},
      {"measurement": "LDH", "setting": "[4]; [9]", "value": 47.7, "unit": "IU/L"},
      {"measurement": "LDL-C", "setting": "[4]; [9]", "value": 29.7, "unit": "mmol/L"},
      {"measurement": "TC", "setting": "[4]; [9]", "value": 34.2, "unit": "mmol/L"},
      {"measurement": "TG", "setting": "[4]; [9]", "value": 1.0, "unit": "mmol/L"},
      {"measurement": "body weight", "setting": "[4]; [9]", "value": 2.6, "unit": "kg"},
      {"measurement": "serum total cholesterol level", "setting": "[4]; [10]", "value": "28.6 ± 6.7"},
      {"measurement": "serum total cholesterol level", "setting": "[4]; [11]", "value": "31.9 ± 7.5"},
      {"measurement": "serum total cholesterol level", "setting": "[4]; [12]", "value": "33.9 ± 7.2"},
      {"measurement": "serum total cholesterol level", "setting": "[4]; [13]", "value": "33.8 ± 7.8"},
      {"measurement": "serum total cholesterol level", "setting": "[4]; [14]", "value": "34.2 ± 7.4"},
      {"measurement": "ACC phosphorylation (in words)", "setting": "[1]", "value": "induced"},
      {"measurement": "LDLR protein levels (in words)", "setting": "[2]", "value": "effectively increased"},
      {"measurement": "expression of PCSK9 protein (in words)", "setting": "[3]", "value": "strongly inhibited"}
    ]},
    {"smiles": "COc1ccc2c(c1)CCN1Cc3c(ccc(OC)c3OS(=O)(=O)c3cccc(F)c3)CC21", "note": "(stereo not drawn) [128(−), 3,10-Dimethxoy-5,6,7,8,13,13a-hexahydroisoquinolino[2,1-b]isoquinolin-9-yl 3-fluorobenzenesulfonate]", "values": [
      {"measurement": "TC and LDL-C reduction (in words)", "setting": "[4]; 14 days treatment", "value": "strong TC and LDL-C reduction"},
      {"measurement": "HDL-C", "setting": "[4]; [9]", "value": 3.5, "unit": "mmol/L"},
      {"measurement": "LDL-C", "setting": "[4]; [9]", "value": 24.4, "unit": "mmol/L"},
      {"measurement": "TC", "setting": "[4]; [9]", "value": 29.7, "unit": "mmol/L"},
      {"measurement": "TG", "setting": "[4]; [9]", "value": 0.9, "unit": "mmol/L"},
      {"measurement": "serum total cholesterol level", "setting": "[4]; [10]", "value": "28.5 ± 6.3"},
      {"measurement": "serum total cholesterol level", "setting": "[4]; [11]", "value": "29.9 ± 8.0"},
      {"measurement": "serum total cholesterol level", "setting": "[4]; [12]", "value": "29.0 ± 7.9"},
      {"measurement": "serum total cholesterol level", "setting": "[4]; [13]", "value": "27.9 ± 5.2"},
      {"measurement": "serum total cholesterol level", "setting": "[4]; [14]", "value": "29.7 ± 4.9"},
      {"measurement": "ACC phosphorylation (in words)", "setting": "[1]", "value": "induced"},
      {"measurement": "LDLR protein levels (in words)", "setting": "[2]", "value": "effectively increased"},
      {"measurement": "ALP", "setting": "[5]", "value": 155.5, "unit": "IU/L"},
      {"measurement": "ALT", "setting": "[5]", "value": 50.2, "unit": "IU/L"},
      {"measurement": "AST", "setting": "[5]", "value": 20.8, "unit": "IU/L"},
      {"measurement": "CK", "setting": "[5]", "value": 997.5, "unit": "U/L"},
      {"measurement": "CREA", "setting": "[5]", "value": 105.2, "unit": "µmol/L"},
      {"measurement": "GLU", "setting": "[5]", "value": 7.9, "unit": "mmol/L"},
      {"measurement": "LDH", "setting": "[5]", "value": 50.3, "unit": "IU/L"},
      {"measurement": "adverse effect / toxicities (in words)", "setting": "[5]", "value": "absence of any adverse effect"},
      {"measurement": "expression of PCSK9 protein (in words)", "setting": "[3]", "value": "strongly inhibited"}
    ]},
    {"smiles": "COc1cc2c(cc1OC)[C@H]1[C@@H](C)c3ccc(OC)c(OC)c3CN1CC2", "note": "[CRDL, corydaline]", "values": [
      {"measurement": "adverse effects during the entire treatment", "setting": "[6]; 4 weeks", "value": "No any adverse effects"},
      {"measurement": "Kidney function and blood glucose level", "setting": "[6]; end of 4-week treatment", "value": "not changed"},
      {"measurement": "serum levels of AST and ALT vs control group", "setting": "[6]; end of 4-week treatment", "value": "statistically lower"},
      {"measurement": "LDL-c level, of control", "setting": "[6]; hydrochloride salt, 4 weeks", "value": 25.6, "unit": "%"},
      {"measurement": "LDL-c level, of day 0", "setting": "[6]; hydrochloride salt, 4 weeks", "value": 22.4, "unit": "%"},
      {"measurement": "TC compared to the control group", "setting": "[6]; hydrochloride salt, 4 weeks", "value": 33.8, "unit": "%"},
      {"measurement": "TC, of the pretreatment level", "setting": "[6]; hydrochloride salt, 4 weeks", "value": 33.0, "unit": "%"},
      {"measurement": "TG level, of the control", "setting": "[6]; hydrochloride salt, 4 weeks", "value": 29, "unit": "%"},
      {"measurement": "TG level, of the pretreatment level (day 0)", "setting": "[6]; hydrochloride salt, 4 weeks", "value": 27, "unit": "%"},
      {"measurement": "body weight", "setting": "[7]", "value": "maintained constant"}
    ]}
  ]
}
